Measured values from patent publication US10669275B2 (priority 2015, dated 2020).

Columns and labels:
[1] = twelve weeks at 40° C. and 75% relative humidity
[2] = at about pH 8; cited from earlier work
[3] = 3 tons pressure 1 min; strong grinding dry or with a drop of water, ethanol or isopropanol; 100° C. for 30 minutes; 1 week 100% relative humidity at room temperature
Procedure: The analysis of was performed on ARL (SCINTAG) powder X-Ray diffractometer model X'TRA equipped with a solid stage detector.
Scanning parameters: range: 2-40 degrees two-theta; scan mode: continuous scan; step size: 0.05°, and a rate of 3 deg/min.

[4] = wettability by contact angle measurement; format: physicochemical; settings: water drops (2 μL) on pellet pressed at 2 t*cm^−2
Procedure: The wettability of the below compounds was determined by contact angle measurement. For this purpose, the substances were pressed (2 t*cm^−2) to a pellet. On each pellet were placed three water drops (2 μL) on three individual measurement points and the contact angle was measured with the apparatus OCA40 (DataPhysics Instruments) on two sides of the drop.

Question: With C=CC(=O)N1CCC[C@@H](n2nc(-c3ccc(Oc4ccccc4)cc3)c3c(N)ncnc32)C1 [Ibrutinib Form E, 1-[(3R)-3[4-Amino-3-(4-phenoxyphenyl)-1H-pyrazolo[3,4-d]pyrimidin-1-yl]piperidin-1-yl]prop-2-en-lone] as the compound, how does the “solid form after storage (XRPD, FIG. 15)” value [1] read?
Answer: transformed into ibrutinib Form A

Question: For C=CC(=O)N1CCC[C@@H](n2nc(-c3ccc(Oc4ccccc4)cc3)c3c(N)ncnc32)C1 [Ibrutinib free base form A, 1-[(3R)-3[4-Amino-3-(4-phenoxyphenyl)-1H-pyrazolo[3,4-d]pyrimidin-1-yl]piperidin-1-yl]prop-2-en-lone], which observed aqueous solubility [2] is on record?
Answer: about 0.013 mg/ml

Question: For C=CC(=O)N1CCCC(n2nc(-c3ccc(Oc4ccccc4)cc3)c3c(N)ncnc32)C1.C=CC(=O)N1CCCC(n2nc(-c3ccc(Oc4ccccc4)cc3)c3c(N)ncnc32)C1.O=C(O)C=CC(=O)O (stereo not shown) [ibrutinib:fumaric acid], which “XRPD pattern after stress-tests” value [3] is on record?
Answer: No change was observed in the XRPD pattern

Question: Which “contact angle θ” value [4] does the source give for C=CC(=O)N1CCC[C@@H](n2nc(-c3ccc(Oc4ccccc4)cc3)c3c(N)ncnc32)C1.C=CC(=O)N1CCC[C@@H](n2nc(-c3ccc(Oc4ccccc4)cc3)c3c(N)ncnc32)C1.O=C(O)CCC(=O)O [ibrutinib:succinic acid] here?
Answer: incapable of measurement*
